Values quoted from earlier work as cited in patent US20080069909A1, “MENOPAUSE DISORDER SYNERGISTIC PHYTO-NUTRACEUTICAL COMPOSITION” (priority 2006, published 2008).
Like-named read-outs stand apart in the source and are kept apart here.

Key:
[1] = test system: bacterial resistance mechanism (multidrug pump)
beta-estrogenic receptor = beta-estrogenic receptor (Homo sapiens, UniProt Q92731)
beta-estrogenic receptor, sequence (Q92731 whole entry): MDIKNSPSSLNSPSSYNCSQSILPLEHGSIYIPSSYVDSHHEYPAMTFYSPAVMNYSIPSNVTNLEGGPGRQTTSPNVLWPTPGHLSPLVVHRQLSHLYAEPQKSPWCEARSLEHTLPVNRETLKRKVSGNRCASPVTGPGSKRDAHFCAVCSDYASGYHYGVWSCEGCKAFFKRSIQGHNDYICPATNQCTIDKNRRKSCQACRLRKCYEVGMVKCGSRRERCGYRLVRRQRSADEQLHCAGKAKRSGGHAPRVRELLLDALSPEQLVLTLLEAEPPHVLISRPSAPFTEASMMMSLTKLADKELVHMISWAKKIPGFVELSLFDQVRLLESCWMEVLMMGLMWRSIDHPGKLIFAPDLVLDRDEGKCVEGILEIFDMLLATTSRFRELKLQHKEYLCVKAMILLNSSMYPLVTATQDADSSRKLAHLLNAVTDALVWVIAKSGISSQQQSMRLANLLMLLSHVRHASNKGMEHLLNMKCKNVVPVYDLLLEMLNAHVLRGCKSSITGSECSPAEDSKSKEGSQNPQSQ

## COc1cc([C@H]2Oc3cc(-c4cc(=O)c5c(O)cc(O)cc5o4)cc(OC)c3O[C@@H]2CO)ccc1O (racemic) [5′-MHC, 5′-methoxyhydnocarpin]
[1]; by the action of 5′-MHC
  activity of herbal Berberine alkaloids: strongly potentiated
[1]; in the presence of 5′-MHC
  accumulation of berberine in the cells: strong increase

## CCCCC/C=C\C/C=C\CCCCCCCC(=O)O [Linoleic acid]
Estrogen receptors
  binding to estrogen receptors: can bind to estrogen receptors
Estrogen inducible genes
  induction of estrogen inducible genes: induce certain estrogen inducible genes

## COc1cc2oc(-c3ccc(O)cc3)c(OC)c(=O)c2c(O)c1OC [Penduletin]
beta-estrogenic receptor
  receptor ligand: specific ligands

## O=c1cc(-c2ccc(O)cc2)oc2cc(O)cc(O)c12 [apigenin]
beta-estrogenic receptor
  receptor ligand: specific ligands

## O=c1c(-c2ccc(O)cc2)coc2c([C@@H]3O[C@H](CO)[C@@H](O)[C@H](O)[C@H]3O)c(O)ccc12 [puerarin]
Estrogen receptor; estrogen-deficiency animals
  estrogen-like effect: weak estrogen-like effect
Estrogen receptor; high-estrogen-level animals
  estrogen-like effect: antiestrogen-like effect
Estrogen receptor; normal-estrogen level animals
  estrogen-like effect: no effect
